pIC50: −log10 of the molar value.
Experiments:
[1] = target: T1, Melanin-concentrating hormone receptor 1 (Homo sapiens, UniProt Q99705); assay: Displacement of [125I]MCH from MCHr1 expressed in IMR32 cells; type: cell-based, IMR-32
[2] = target: T1, Melanin-concentrating hormone receptor 1; assay: Antagonist activity at MCHr1 assessed as inhibition of MCH-mediated calcium ion release in intact IMR32 cells by FLIPR assay; type: functional, cell-based, IMR-32
Rattus norvegicus [3] = assay: Drug level in anesthetized Sprague-Dawley rat plasma; type: ADME, organism-based; details: in vivo
Rattus norvegicus [4] = assay: Drug level in anesthetized Sprague-Dawley rat brain; type: ADME, organism-based; details: in vivo
[5] = Cmax in C57BL/6J DIO mouse plasma at 10 mg/kg, po; type: ADME, organism-based; set-up: dose 10 mg/kg, route oral
[6] = Half life in C57BL/6J DIO mouse plasma at 10 mg/kg, po; type: ADME, organism-based; set-up: dose 10 mg/kg, route oral
[7] = AUC in C57BL/6J DIO mouse plasma at 10 mg/kg, po; type: ADME, organism-based; set-up: dose 10 mg/kg, route oral
[8] = Cmax in C57BL/6J DIO mouse brain at 10 mg/kg, po; type: ADME, organism-based; set-up: dose 10 mg/kg, route oral
[9] = Half life in C57BL/6J DIO mouse brain at 10 mg/kg, po; type: ADME, organism-based; set-up: dose 10 mg/kg, route oral
Mus musculus [10] = assay: AUC in C57BL/6J DIO mouse brain at 10 mg/kg, po; type: ADME, organism-based; set-up: dose 10 mg/kg, route oral; details: in vivo
[11] = Ratio of AUC in brain to plasma of C57BL/6J DIO mouse at 10 mg/kg, po; type: ADME, organism-based; set-up: dose 10 mg/kg, route oral; details: brain and plasma, read-out: Ratio AUC
Mus musculus [12] = assay: Decrease in body weight of C57BL/6J DIO mouse at 3 mg/kg, po after 22 days relative to control; type: functional; set-up: scale not given: the % may be the effect or the level left
Mus musculus [13] = assay: Decrease in body weight of C57BL/6J DIO mouse at 10 mg/kg, po after 22 days relative to control; type: functional; set-up: scale not given: the % may be the effect or the level left
[14] = Drug level in C57BL/6J DIO mouse plasma at 3 mg/kg, po after 22 days; type: ADME, organism-based; set-up: dose 3 mg/kg, route oral
[15] = Drug level in C57BL/6J DIO mouse plasma at 10 mg/kg, po after 22 days; type: ADME, organism-based; set-up: dose 10 mg/kg, route oral
[16] = Drug level in C57BL/6J DIO mouse brain at 3 mg/kg, po after 22 days; type: ADME, organism-based; set-up: dose 3 mg/kg, route oral; details: read-out: Drug uptake
[17] = Drug level in C57BL/6J DIO mouse brain at 10 mg/kg, po after 22 days; type: ADME, organism-based; set-up: dose 10 mg/kg, route oral; details: read-out: Drug uptake
[18] = Drug level in anasthetized Beagle dog plasma at 3 mg/kg, iv after 30 mins; type: ADME, organism-based, Canis lupus familiaris; set-up: dose 3 mg/kg, route intravenous
[19] = Drug level in anasthetized Beagle dog plasma at 10 mg/kg, iv after 30 mins; type: ADME, organism-based, Canis lupus familiaris; set-up: dose 10 mg/kg, route intravenous
[20] = Drug level in anasthetized Beagle dog plasma at 30 mg/kg, iv after 30 mins; type: ADME, organism-based, Canis lupus familiaris; set-up: dose 30 mg/kg, route intravenous
Canis familiaris [21] = organism: Canis familiaris; assay: Decrease in heart rate in anasthetized Beagle dog at 10.94 ug/ml relative to control; type: functional, Canis lupus familiaris; set-up: scale not given: the % may be the effect or the level left
Canis familiaris [22] = organism: Canis familiaris; assay: Decrease in heart rate in anasthetized Beagle dog at 36.13 ug/ml relative to control; type: functional, Canis lupus familiaris; set-up: scale not given: the % may be the effect or the level left
Rattus norvegicus [23] = assay: Decrease in heart rate in anesthetized Sprague-Dawley rat at 100 mg/kg; type: functional; set-up: scale not given: the % may be the effect or the level left
Rattus norvegicus [24] = assay: Decrease in mean arterial pressure in anesthetized Sprague-Dawley rat at 60 mg/kg; type: functional, Artery; set-up: scale not given: the % may be the effect or the level left
Rattus norvegicus [25] = assay: Decrease in heart rate in anesthetized Sprague-Dawley rat at 60 mg/kg; type: functional; set-up: scale not given: the % may be the effect or the level left

T1 sequence (Q99705 whole entry): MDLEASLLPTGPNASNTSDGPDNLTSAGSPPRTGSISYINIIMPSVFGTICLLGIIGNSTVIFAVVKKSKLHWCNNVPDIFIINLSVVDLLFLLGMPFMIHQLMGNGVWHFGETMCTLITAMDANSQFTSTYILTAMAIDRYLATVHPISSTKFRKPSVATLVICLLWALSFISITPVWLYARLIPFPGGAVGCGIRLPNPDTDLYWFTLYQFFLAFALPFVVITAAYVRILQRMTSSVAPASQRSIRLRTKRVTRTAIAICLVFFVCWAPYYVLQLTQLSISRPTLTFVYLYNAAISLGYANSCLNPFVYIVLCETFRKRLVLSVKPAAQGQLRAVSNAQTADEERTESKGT

Structure (SMILES)	pIC50 [1]	pIC50 [2]	further results
O=C(NC1CCN(Cc2ccc3c(c2)OCO3)CC1)c1cc(=O)c2cc(Br)ccc2o1	6.73	< 5.22	
O=C(NC1CCN(Cc2ccc3c(c2)OCO3)CC1)c1cc(=O)c2ccc(F)cc2o1			Cp (Rattus norvegicus [3]): 62000 ng/mL; Drug uptake (Rattus norvegicus [4]): 126 µg/g; Cmax ([5]; read-out: Cp): 1780 ng/mL; half-life [6]: 2.5 h; AUC [7]: 9290 ng·h/mL; Cmax [8]: 4370 ng/g; half-life [9]: 2.4 h; AUC (Mus musculus [10]): 12658 ng·h/g; Kp [11]: 1.4; Activity (Mus musculus [12]): 0%; Activity (Mus musculus [13]): 7%; concentration at 528 h [14]: 840 ng/mL; concentration at 528 h [15]: 3270 ng/mL; concentration at 528 h [16]: 1110 ng/g; concentration at 528 h [17]: 4670 ng/g; concentration at 0.5 h [18]: 5.9 µM; concentration at 0.5 h [19]: 25.8 µM; concentration at 0.5 h [20]: 85.1 µM; Activity (Canis familiaris [21]): 22%; Activity (Canis familiaris [22]): 11%
COc1cccc(CN2CCC(NC(=O)c3cc(=O)c4ccc(F)cc4o3)CC2)c1	7.51	6.41	
O=C(NC1CCN(Cc2ccc3c(c2)OCO3)CC1)c1cc(=O)c2cc(Cl)c(Cl)cc2o1		7.08	Cp (Rattus norvegicus [3]): 20000 ng/mL; Drug uptake (Rattus norvegicus [4]): 63 µg/g; Activity (Rattus norvegicus [23]): 10%; Cmax ([5]; read-out: Cmax): 33 ng/mL; half-life [6]: 0.9 h; AUC [7]: 39 ng·h/mL; AUC (Mus musculus [10]): 0 ng·h/g
CC(=O)c1ccc(CN2CCC(NC(=O)c3cc(=O)c4ccc(F)cc4o3)CC2)cc1	7.41	6.24	
O=C(NC1CCN(Cc2ccc3c(c2)OCO3)CC1)c1cc(=O)c2ccc(O)cc2o1	5.83	< 5.00	
O=C(NC1CCN(Cc2ccc3c(c2)OCCO3)CC1)c1cc(=O)c2ccc(F)cc2o1	7.14	6.77	
O=C(NC1CCN(Cc2cc3c(cc2Cl)OCO3)CC1)c1cc(=O)c2ccc(F)cc2o1	7.66	6.58	
O=C(NC1CCN(Cc2ccc3c(c2)OCO3)CC1)c1cc(=O)c2cc(F)ccc2o1	7.19	6.71	
COc1cc2oc(C(=O)NC3CCN(Cc4ccc5c(c4)OCO5)CC3)cc(=O)c2cc1F	8.70	7.80	Cp (Rattus norvegicus [3]): 105000 ng/mL; Drug uptake (Rattus norvegicus [4]): 149 µg/g; Activity (Rattus norvegicus [24]): 15.3%; Activity (Rattus norvegicus [25]): <15%
O=C(NC1CCN(Cc2ccc3c(c2)OCO3)CC1)c1cc(=O)c2ccc(Br)cc2o1	7.49	7.09	
O=C(NC1CCN(Cc2ccc3c(c2)OCO3)CC1)c1cc(=O)c2cc(Cl)ccc2o1	6.13	5.69	

Continued, in another order:

pIC50 [1]	pIC50 [2]	Structure (SMILES)	further results
7.19	6.80	O=C(NC1CCN(Cc2ccc3c(c2)OCO3)CC1)c1cc(=O)c2ccc(OC(F)F)cc2o1	
8.30	7.10	O=C(NC1CCN(Cc2ccc3c(c2)OCO3)CC1)c1cc(=O)c2ccc(Cl)cc2o1	
6.80	6.10	O=C(NC1CCN(Cc2ccc(F)cc2)CC1)c1cc(=O)c2ccc(F)cc2o1	
< 5.70		COc1ccc2c(=O)cc(C(=O)NCCC3CCCN3Cc3ccc4c(c3)OCO4)oc2c1 (stereo not given)	
< 5.70		COc1ccc2c(=O)cc(C(=O)NC3CCCN(Cc4ccc5c(c4)OCO5)C3)oc2c1 (stereo not given)	
7.23	6.28	CCc1ccc2c(=O)cc(C(=O)NC3CCN(Cc4ccc5c(c4)OCO5)CC3)oc2c1	
7.18	6.72	O=C(NC1CCN(Cc2ccc3c(c2)OCO3)CC1)c1cc(=O)c2ccccc2o1	
7.89	7.00	COc1ccc(CN2CCC(NC(=O)c3cc(=O)c4ccc(F)cc4o3)CC2)cc1	
7.62	< 5.00	O=C(NC1CCN(Cc2ccc3c(c2)OCO3)CC1)c1cc(=O)c2c(Cl)cccc2o1	
7.92	6.02	O=C(NC1CCN(Cc2cccc(F)c2)CC1)c1cc(=O)c2ccc(F)cc2o1	

Reference: ChEMBL document CHEMBL1137327, “Optimization of chromone-2-carboxamide melanin concentrating hormone receptor 1 antagonists: assessment of potency, efficacy, and cardiovascular safety” (J Med Chem, 2006)
